The text below walks through data of PubChem BioAssay (NCI).

Test systems include SF-295 CNS; LOX IMVI melanoma; SK-MEL-2 melanoma; SF-268 CNS; OVCAR-3 ovarian; CAKI-1 renal; SNB-19 CNS; OVCAR-4 ovarian.
What all share (assay): NCI-60 cell line screen, 48 h

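Assay format: 96-well plates, 48-hour exposure. GI50 marks 50% less growth. At the TGI there is no net growth.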

Regarding `CN(C)C(=S)/N=c1\ssc(=S)n1Cc1ccccn1`, the TGI in the assay with SF-295 CNS was over 65.7 µM; in the assay on LOX IMVI melanoma, over 100 µM; in the assay on SK-MEL-2 melanoma, 5.98 µM; with SF-268 CNS it was over 100 µM; in the assay on OVCAR-3 ovarian, 11.3 µM; in the assay on CAKI-1 renal, over 100 µM. Moreover, the TGI with SNB-19 CNS is over 100 µM; in the assay on OVCAR-4 ovarian, over 52.3 µM.

With `CCN1CCC(O)(c2ccc(Cl)c(Cl)c2)C(C(=O)c2ccc(Cl)c(Cl)c2)C1` (configuration not stated), the TGI turned out to be 31.9 µM with SF-295 CNS; 34 µM in the assay on LOX IMVI melanoma; 31.9 µM with SK-MEL-2 melanoma; 38.6 µM in the assay on SF-268 CNS; 27 µM in the assay with OVCAR-3 ovarian; 32.6 µM in the assay with CAKI-1 renal. Besides, the values for the TGI in the assay with SNB-19 CNS and in the assay on OVCAR-4 ovarian were 35.1 µM and 32.6 µM, respectively.

Take `CCc1ccccc1NC(=O)C1=C(C)NC(C)=C(C(=O)Nc2ccccc2CC)C1c1ccc(NC(C)=O)cc1`: the TGI in the assay on SF-295 CNS was over 100 µM; with LOX IMVI melanoma, 44.2 µM; in the assay with SK-MEL-2 melanoma, 70.1 µM; in the assay with SF-268 CNS it was over 100 µM; with OVCAR-3 ovarian, over 100 µM; with CAKI-1 renal it was over 100 µM. For the same molecule, the TGI with SNB-19 CNS and with OVCAR-4 ovarian was over 100 µM each time.

Consider `Oc1cccc2nc3cc(CN4CCOCC4)c(CN4CCOCC4)cc3nc12`, for which the TGI in the assay on SF-295 CNS, in the assay on LOX IMVI melanoma, in the assay with SK-MEL-2 melanoma, in the assay with SF-268 CNS, in the assay on OVCAR-3 ovarian and with CAKI-1 renal was over 100 µM in each case. In addition, the TGI with SNB-19 CNS and in the assay with OVCAR-4 ovarian was over 100 µM throughout.

On to `CCCCCCCCCCCCCCCCCCOCC1(COP(=O)([O-])OCC[N+](C)(C)C)CCCO1` (configuration not stated), for which the TGI amounted to 6.84 µM in the assay on SF-295 CNS; 19.3 µM in the assay on LOX IMVI melanoma; 22.8 µM in the assay with SK-MEL-2 melanoma; 18.2 µM in the assay on SF-268 CNS; 15.7 µM with OVCAR-3 ovarian; 11.1 µM in the assay with SNB-19 CNS. Also, the TGI in the assay on OVCAR-4 ovarian came to 8.38 µM.

As to `CC(=O)NNc1nc(C)c(C(/C=C/c2ccc(Cl)cc2)=N/NC(=S)NN)s1`, the TGI with SF-295 CNS, in the assay with LOX IMVI melanoma, in the assay on SK-MEL-2 melanoma, in the assay with SF-268 CNS, in the assay with CAKI-1 renal and with SNB-19 CNS was over 100 µM in each case. This molecule registered a TGI in the assay with OVCAR-4 ovarian of over 100 µM.

In the case of `Cn1c(=O)c2[nH]cnc2n(CC(=O)O)c1=O`, the TGI in the assay on SK-MEL-2 melanoma, in the assay with SF-268 CNS, in the assay on OVCAR-3 ovarian, in the assay with CAKI-1 renal and in the assay with SNB-19 CNS was over 100 µM throughout.

Consider `NC(=O)N/N=C1/CCCC/C1=C\c1ccccc1`, for which the TGI with SF-295 CNS, in the assay with LOX IMVI melanoma, in the assay on SK-MEL-2 melanoma, in the assay with SF-268 CNS, with OVCAR-3 ovarian and with CAKI-1 renal was over 100 µM in each case. In the assay with OVCAR-4 ovarian, this molecule came in with a TGI of over 100 µM.

Consider `CCC[CH2][Sn]1([CH2]CCC)[O]CC([CH2][Sn]([c]2ccccc2)([c]2ccccc2)[c]2ccccc2)[O]1` (configuration not stated), for which the GI50 is 16.2 µM in the assay with SF-295 CNS; 10.9 µM with SK-MEL-2 melanoma; 6.79 µM in the assay with SF-268 CNS; 14.9 µM in the assay on OVCAR-3 ovarian; 15.1 µM in the assay on SNB-19 CNS. In addition, the TGI in the assay on SF-295 CNS amounted to 30.4 µM; in the assay with SK-MEL-2 melanoma, 23.4 µM; with SF-268 CNS, 19 µM; in the assay with OVCAR-3 ovarian, 29.9 µM; in the assay on SNB-19 CNS, 28.6 µM.

Take `CCCCCCCCCCCCOC(=S)NC`: the TGI in the assay with SF-295 CNS is 43.9 µM; in the assay with LOX IMVI melanoma, 27.4 µM; in the assay with SK-MEL-2 melanoma, 28.1 µM; in the assay with SF-268 CNS, 36 µM; in the assay with SNB-19 CNS it was over 100 µM; in the assay on OVCAR-4 ovarian, 56 µM.

As to `O=C(O)C1=C(Cl)c2ccccc2S1(=O)=O`, the TGI in the assay on SF-295 CNS, in the assay on LOX IMVI melanoma, in the assay on SK-MEL-2 melanoma, in the assay on SF-268 CNS, in the assay on CAKI-1 renal and in the assay on SNB-19 CNS was over 100 µM each time. For the same molecule, the TGI with OVCAR-4 ovarian was over 100 µM.

As for `COc1cc(CCC(=O)NS(=O)(=O)c2ccccc2)cc(OC)c1OC`, the TGI in the assay on SF-295 CNS, with LOX IMVI melanoma, with SK-MEL-2 melanoma, with SF-268 CNS, with OVCAR-3 ovarian and in the assay with CAKI-1 renal was over 100 µM in each case. The TGI with SNB-19 CNS and with OVCAR-4 ovarian was over 100 µM in each case.

Consider `CC(=O)[CH-]C(=O)c1ccccc1.CC(=O)[CH-]C(=O)c1ccccc1.CC[O-].O=C1C=C([O-])C(=O)c2ccccc21.[Ti+4]`, for which the GI50 was 37.9 µM in the assay on SF-295 CNS; 20 µM with LOX IMVI melanoma; 9.07 µM in the assay with SK-MEL-2 melanoma; over 100 µM in the assay on SF-268 CNS; 42.6 µM in the assay on OVCAR-3 ovarian; over 100 µM with CAKI-1 renal. The GI50 in the assay on SNB-19 CNS and in the assay with OVCAR-4 ovarian was over 100 µM throughout. Moreover, the TGI with SF-295 CNS was over 100 µM; with LOX IMVI melanoma it was over 100 µM; in the assay with SK-MEL-2 melanoma it was 86.3 µM; in the assay on SF-268 CNS, over 100 µM; in the assay with OVCAR-3 ovarian, over 100 µM; with CAKI-1 renal, over 100 µM. Also, the TGI in the assay with SNB-19 CNS and in the assay with OVCAR-4 ovarian was over 100 µM each time.

For `O=C(Cc1nc2ccccc2s1)C(=O)Nc1ccc(Cl)cc1Cl`, the TGI in the assay on SF-295 CNS, with LOX IMVI melanoma, in the assay on SK-MEL-2 melanoma, in the assay with SF-268 CNS, with OVCAR-3 ovarian and with SNB-19 CNS was over 100 µM each time. In the assay with OVCAR-4 ovarian, this molecule displayed a TGI of over 100 µM.

On to `CN(C)NC(=S)NC12CC3CC(CC(C3)C1)C2`, for which the TGI in the assay with SF-295 CNS, in the assay with LOX IMVI melanoma, with SK-MEL-2 melanoma, in the assay on SF-268 CNS, with OVCAR-3 ovarian and in the assay on CAKI-1 renal was over 100 µM in each case. For the same molecule, the TGI in the assay with SNB-19 CNS and in the assay on OVCAR-4 ovarian was over 100 µM in each case.

Take `COC(=O)C(C(=O)C(=O)Nc1ccc(C)cc1C)c1nc2ccc([N+](=O)[O-])cc2[nH]c1=O` (configuration not stated): the TGI in the assay with SF-295 CNS, in the assay on LOX IMVI melanoma, in the assay with SK-MEL-2 melanoma, in the assay on SF-268 CNS, with CAKI-1 renal and in the assay with SNB-19 CNS was over 100 µM in each case. Further, the TGI in the assay on OVCAR-4 ovarian was over 100 µM.
